This note sets out measurements from patent US20210207101A1, “Hybrid Thymus, Methods of Making, and Methods of Using to Induce Xenograft Tolerance, Restore Immunocompetence and Thymic Function” (THE TRUSTEES OF COLUMBIA UNIVERSITY IN THE CITY OF NEW YORK, priority 2018, published 2021).

One assay has as its system pig thymocytes. The experiment in a line: Ex vivo depletion of thymocytes in pig thymic fragments. As to conditions: 2DG 100 mM for 12 hours. It counts as cell-based. From the text: There are different strategies to deplete the thymocytes in pig thymic fragments ex vivo, including anti-pig CD3 immunotoxin and complement-mediated toxicity (rabbit serum as source of complements plus anti-pig CD2). However, these two strategies were not effective. […] Results not shown.
[…] The ratio of remaining live double positive CD4 and CD8 cells (DP) or single positive (SP) CD4 (SP-CD4) or SP-CD8 cells on double negative (DN) cells, which contain the stromal cells, was used as the readout.

Assay [1] relates to human thymopoiesis in grafted thymi. The experiment in a line: Human immune cell reconstitution after transplantation of 2DG-treated or untreated pig thymi into humanized NSG mice. To be noted: 100 mM 2DG for 12 hours before grafting; mice bled every 2-3 weeks. The format is in vivo, mouse. The protocol:
Using the 2DG treatment to deplete the pig thymocytes and the Hamilton syringe (Method C described above) for injection of human thymic stromal cells, a hybrid thymus was generated and tested in vivo. Specifically, two vials of fetal pig thymus were thawed. After pipetting up and down to release as many thymocytes as possible, half of the pieces were treated with 100 mM 2DG for 12 hours and the other half remained untreated. On the next day, six vials of human fetal thymus were thawed. After pipetting up and down to release as many thymocytes as possible, liberase was used to digest and release the stromal cells and make a single-cell suspension. After depletion of human CD45+ cells using magnetic-activated cell sorting (MACS), 10 million thymic stromal cells were dissolved in 150 μl of cold Matrigel at a concentration of 66,000 cells per μl. Around 10 μl of the cells (around 660,000 thymic stromal cells) were injected into each fetal pig thymus piece (either 2DG-treated and non-treated). The pieces were kept with fine forceps at room temperature for about 2 minutes until the Matrigel solidified. Then, each piece was transferred to a well of a 96-well plate containing medium with 10% human serum. […] Every 2-3 weeks following transplantation, the mice were bled, and the level of human immune cell reconstitution was evaluated.

`O=CC[C@@H](O)[C@H](O)[C@H](O)CO` [2DG, 2-deoxyglucose]: in the assay with pig thymocytes, the “ratio of remaining live DP or SP-CD4 or SP-CD8 cells on double negative (DN) cells” value is “lowest ratios”. Further, the “effect of treatment of pig thymic fragments on human thymopoiesis in grafted thymi” value in assay [1] was “did not affect human thymopoiesis”.
